Target: human NAMPT (Homo sapiens (Human), UniProt P43490)
Test: NMN fluorescence biochemical assay (human recombinant NAMPT enzyme assay)
Protocol: Compounds described herein were assayed for their ability to stimulate the synthesis of nicotinamide mononucleotide (NMN) by the enzyme NAMPT. The human recombinant enzyme assay measures the activation of the enzyme activity by compounds using recombinant enzyme and substrates in a buffered cell-free system. The assay conditions closely mimic cellular environments. Dose responses were measured using an assay to detect the formation of nicotinamide mono-nucleotide. All experiments were performed in the 384-well format. Generally, 0.5 μL of DMSO containing varying concentrations of the test compound was mixed with 10 μL of the enzyme reagent solution. Enzyme reactions were initiated with the addition of […] containing the substrates. The final assay conditions were as follows: 6 nM human NAMPT, 2.5 mM ATP, 20 μM PRPP and 150 μM nicotinamide in 50 mM HEPES, pH 7.2, 1 mM DTT, 1 mM CHAPS 50 mM NaCl, 100 mM MgCl2. Following an incubation of 60 min at ambient temperature, 10 μL of 20% acetophenone in DMSO was added, followed by 10 μL of 2 M KOH and 40 μL of formic acid. The plates were read for fluorescence (Excitation/Emission=355 nm/460 nm) using an EnVision plate reader after 40 mins of incubation at ambient temperature.

human NAMPT, sequence (P43490 whole entry): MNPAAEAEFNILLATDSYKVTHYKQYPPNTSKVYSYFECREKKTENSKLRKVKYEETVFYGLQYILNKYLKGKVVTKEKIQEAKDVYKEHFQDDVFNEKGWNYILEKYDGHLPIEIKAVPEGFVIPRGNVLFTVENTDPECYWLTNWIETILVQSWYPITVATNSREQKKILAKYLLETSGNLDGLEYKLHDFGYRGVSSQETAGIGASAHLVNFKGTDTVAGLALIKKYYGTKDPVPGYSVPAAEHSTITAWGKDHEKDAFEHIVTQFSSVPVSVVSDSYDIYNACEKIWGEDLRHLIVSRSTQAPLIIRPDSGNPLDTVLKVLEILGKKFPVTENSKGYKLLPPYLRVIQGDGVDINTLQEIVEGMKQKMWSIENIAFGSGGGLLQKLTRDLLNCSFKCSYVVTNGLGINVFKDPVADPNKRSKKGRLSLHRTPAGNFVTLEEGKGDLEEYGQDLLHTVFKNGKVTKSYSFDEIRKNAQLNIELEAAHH

Row | SMILES | AC1.4 Human [µM] | EC50 [µM]
1 | CS(=O)(=O)N1CCC(Cc2ccc(NC(=O)OCc3cnco3)cc2)C2CC21 (centres unmarked) [Compound 453, oxazol-5-ylmethyl (4-((2-(methylsulfonyl)-2-azabicyclo[4.1.0]heptan-5-yl)methyl)phenyl)carbamate] | 0.35 | 44
2 | CC(=O)N1CC2CC(C1)C2Cc1ccc(NC(=O)OCc2cnco2)cc1 (centres unmarked) [Compound 438, oxazol-5-ylmethyl (4-((3-acetyl-3-azabicyclo[3.1.1]heptan-6-yl)methyl)phenyl)carbamate] | 0.04 | 2.7
3 | COc1ccc(COC(=O)Nc2ccc([C@@H](C)C(=O)N3CCC[C@H]3CO)cc2)cc1 [Compound 47] | 0.49 | 9.61
4 | COC(=O)N1CC2CC(C1)C2Cc1ccc(NC(=O)OCc2cnco2)cc1 (centres unmarked) [Compound 435, methyl 6-(4-(((oxazol-5-ylmethoxy)carbonyl)amino)benzyl)-3-azabicyclo[3.1.1]heptane-3-carboxylate] | 0.08 | 7.52
5 | CN1CCN(Cc2ccc(NC(=O)OCc3ccc(Cl)cc3)cc2)C(=O)C1 [Compound 28, 4-chlorobenzyl (4-((4-methyl-2-oxopiperazin-1-yl)methyl)phenyl)carbamate] | 0.36 | 3.01
6 | C[C@H](NC(=O)C1CC(F)(F)C1)c1ccc(NC(=O)OCc2cnco2)cc1 [Compound 75, 1,3-oxazol-5-ylmethyl N-{4-[(1S)-1-[(3,3-difluorocyclobutyl)formamido]ethyl]phenyl}carbamate] | 0.64 | 26.3
7 | O=C(Nc1ccc(CC2CC3CCC(C2)N3C(=O)N2CCCC2)cc1)OCc1cnco1 (centres unmarked) [Compound 391, oxazol-5-ylmethyl (4-((8-(pyrrolidine-1-carbonyl)-8-azabicyclo[3.2.1]octan-3-yl)methyl)phenyl)carbamate] | 0.05 | 5.5
8 | O=C(Nc1ccc(CC2CCN(C3COC3)CC2)cc1)OCc1cnco1 [Compound 80, oxazol-5-ylmethyl (4-((1-(oxetan-3-yl)piperidin-4-yl)methyl)phenyl)carbamate] | 0.66 | 29
9 | C[C@H](NC(=O)N1CCCC1)c1ccc(NC(=O)OCc2ccc(Cl)cc2)cc1 [Compound 103, 4-chlorobenzyl (S)-(4-(1-(pyrrolidine-1-carboxamido)ethyl)phenyl)carbamate] | 0.83 | 4.31
10 | Cc1ccc(C(=O)NCc2ccc(NC(=O)OCc3cncs3)cc2)cn1 [Compound 66, thiazol-5-ylmethyl (4-((6-methylnicotinamido)methyl)phenyl)carbamate] | 0.59 | 5.12
11 | C[C@H](NC(=O)c1cccnc1)c1ccc(NC(=O)OCc2ccc(Cl)cc2)cc1 [Compound 118, (4-chlorophenyl)methyl N-{4-[(1S)-1-(pyridin-3-ylformamido)ethyl]phenyl}carbamate] | 0.95 | 3.13
12 | CO[C@H]1CCCN(C(=O)Cc2ccc(NC(=O)OCc3ccc(Cl)cc3)cc2)C1 [Compound 161, 4-chlorobenzyl (S)-(4-(2-(3-methoxypiperidin-1-yl)-2-oxoethyl)phenyl)carbamate] | 1.33 | 10.1
13 | CS(=O)(=O)N1CCC[C@H](c2ccc(NC(=O)OCc3cnco3)cc2)C1 [Compound 365, oxazol-5-ylmethyl (R)-(4-(1-(methylsulfonyl)piperidin-3-yl)phenyl)carbamate] | 0.33 | 38.6
14 | O=C(Nc1ccc(CNC(=O)c2ocnc2C2CC2)cc1)OCc1ccc(Cl)cc1 [Compound 343, (4-chlorophenyl)methyl N-(4-{[(4-cyclopropyl-1,3-oxazol-5-yl)formamido]methyl}phenyl)carbamate] | 11.85 | 21.9
15 | CCn1nccc1C(=O)N[C@@H](C)c1ccc(NC(=O)OCc2ccc(Cl)cc2)cc1 [Compound 101, (4-chlorophenyl)methyl N-{4-[(1S)-1-[(2-ethylpyrazol-3-yl)formamido]ethyl]phenyl}carbamate] | 0.82 | 4.14
16 | O=C(Nc1ccc(Cc2cnccn2)cc1)OCc1ccc(Cl)cc1 [Compound 303, 4-chlorobenzyl (4-(pyrazin-2-ylmethyl)phenyl)carbamate] | 4.87 | 19.4
17 | CC(C)C(=O)N1CC2CC(C1)C2Cc1ccc(NC(=O)OCc2cnco2)cc1 (centres unmarked) [Compound 437, oxazol-5-ylmethyl (4-((3-isobutyryl-3-azabicyclo[3.1.1]heptan-6-yl)methyl)phenyl)carbamate] | 0.27 | 9.67
18 | O=C(Nc1ccc(CC2CC3CCC(C2)N3C(=O)N2CCC2)cc1)OCc1cnco1 (centres unmarked) [Compound 392, oxazol-5-ylmethyl (4-((8-(azetidine-1-carbonyl)-8-azabicyclo[3.2.1]octan-3-yl)methyl)phenyl)carbamate] | 0.13 | 6.9
19 | CN(C)C(=O)N1CCC(Cc2ccc(NC(=O)OCc3cnco3)cc2)CC12CC2 (centres unmarked) [Compound 442, oxazol-5-ylmethyl (4-((4-(dimethylcarbamoyl)-4-azaspiro[2.5]octan-7-yl)methyl)phenyl)carbamate] | 0.12 | 3.78
20 | C[C@H](NC(=O)c1ccc(C(F)F)nc1)c1ccc(NC(=O)OCc2ccc(Cl)cc2)cc1 [Compound 164, (4-chlorophenyl)methyl N-{4-[(1S)-1-{[6-(difluoromethyl)pyridin-3-yl]formamido}ethyl]phenyl}carbamate] | 1.38 | 1.6
21 | O=C(Nc1ccc(Cc2cccnc2)cc1)OCc1ccc(Cl)cc1 [Compound 172, 4-chlorobenzyl (4-(pyridin-3-ylmethyl)phenyl)carbamate] | 1.43 | 3.54

More lines, in order of falling EC50, values ahead:

Row | AC1.4 Human [µM] | EC50 [µM] | SMILES
22 | 0.05 | 48.3 | CCC(=O)N1CCC(c2ccc(NC(=O)OCc3cnco3)cc2F)CC1 [Compound 412, oxazol-5-ylmethyl (3-fluoro-4-(1-propionylpiperidin-4-yl)phenyl)carbamate]
23 | 2.22 | 44.9 | O=C1CN(C(=O)Cc2ccc(NC(=O)OCc3ccc(Cl)cc3)cc2)CCN1 [Compound 235, (4-chlorophenyl)methyl N-{4-[2-oxo-2-(3-oxopiperazin-1-yl)ethyl]phenyl}carbamate]
24 | 0.96 | 44.9 | COC(=O)N1CCC(CCc2ccc(NC(=O)OCc3cnco3)cc2)CC1 [Compound 120, methyl 4-(4-(((oxazol-5-ylmethoxy)carbonyl)amino)phenethyl)piperidine-1-carboxylate]
25 | 4.93 | 23.5 | CC(C)N1CC(=O)NC[C@@H]1c1ccc(NC(=O)OCc2ccc(Cl)cc2)cc1 [Compound 304, 4-chlorobenzyl (S)-(4-(1-isopropyl-5-oxopiperazin-2-yl)phenyl)carbamate]
26 | 1.64 | 18.6 | C[C@H](NC(=O)C1(C)COC1)c1ccc(NC(=O)OCc2ccc(Cl)cc2)cc1 [Compound 189, 4-chlorobenzyl (S)-(4-(1-(3-methyloxetane-3-carboxamido)ethyl)phenyl)carbamate]
27 | 1.75 | 11.8 | Cc1n[nH]cc1C(=O)N(C)Cc1ccc(NC(=O)OCc2ccc(Cl)cc2)cc1 [Compound 197, (4-chlorophenyl)methyl N-(4-{[N-methyl-1-(3-methyl-1H-pyrazol-4-yl)formamido]methyl}phenyl)carbamate]
28 | 0.72 | 7.32 | COc1cc(C(=O)N(C)Cc2ccc(NC(=O)OCc3ccc(Cl)cc3)cc2)n(C)n1 [Compound 90, (4-chlorophenyl)methyl N-(4-{[1-(5-methoxy-2-methylpyrazol-3-yl)-N-methylformamido]methyl}phenyl)carbamate]
29 | 1.62 | 6.85 | Cc1nn(C)c(C(=O)N(C)Cc2ccc(NC(=O)OCc3ccc(Cl)cc3)cc2)c1F [Compound 188, (4-chlorophenyl)methyl N-(4-{[1-(4-fluoro-2,5-dimethylpyrazol-3-yl)-N-methylformamido]methyl}phenyl)carbamate]
30 | 2.09 | 6.14 | O=C(Nc1ccc(CNC(=O)c2cnccn2)cc1)OCc1ccc(Cl)cc1 [Compound 226, (4-chlorophenyl)methyl N-{4-[(pyrazin-2-ylformamido)methyl]phenyl}carbamate]
31 | 0.94 | 3.13 | CC(=O)N1CCC(Cc2ccc(NC(=O)OCc3ccncc3)cc2)CC1 [Compound 115, pyridin-4-ylmethyl (4-((1-acetylpiperidin-4-yl)methyl)phenyl)carbamate]
32 | 0.07 | 2.33 | CS(=O)(=O)N1CCC2(CC(c3ccc(NC(=O)OCc4cnco4)cc3F)C2)C1 (single isomer, unassigned) [Compound 360]
33 | 0.05 | 0.96 | NC(=O)c1ccc(COC(=O)Nc2ccc(CN3CCC[C@@H]3c3cccnc3)cc2)cc1 [Compound 2, (4-carbamoylphenyl)methyl N-(4-{[(2R)-2-(pyridin-3-yl)pyrrolidin-1-yl]methyl}phenyl)carbamate]
34 | 0.64 | 0.89 | CCc1ccc(C(=O)N[C@@H](C)c2ccc(NC(=O)OCc3ccc(Cl)cc3)cc2)cn1 [Compound 76, (4-chlorophenyl)methyl N-{4-[(1S)-1-[(6-ethylpyridin-3-yl)formamido]ethyl]phenyl}carbamate]

Source: patent US20240279215A1 (Cytokinetics, Incorporated, priority 2022, published 2024)
